Laboratory results published in patent US20090136561A1, “Non-peptidyl agents with pHSP20-like activity, and uses thereof” (Prolexys Pharmaceuticals, Inc., priority 2004, published 2009).
“And” between values parts separate entries of the source, which are not always exact repeats. Equal entries are not always repeated. “Also recorded” adds a separate entry of the source. Non-standard residues stand in square brackets, D forms with d. Residues, ends and D or L forms follow the SMILES beside them. pS = N[C@@H](COP(=O)(O)O)C(=O)O

Tests used:
[1] = biological target: T1, interaction between 14-3-3γ and pHSP20 (Homo sapiens, UniProt P61981); test: Fluorescence polarization assay of 14-3-3γ / fluorescein-labeled pHSP20 peptide (WLRRApSAP) interaction; type: binding; settings: for inhibition of interaction between 14-3-3γ and pHSP20: dose response, FIG. 9; for IC50: multiple concentrations, FIG. 10
T1 sequence (P61981 1-247): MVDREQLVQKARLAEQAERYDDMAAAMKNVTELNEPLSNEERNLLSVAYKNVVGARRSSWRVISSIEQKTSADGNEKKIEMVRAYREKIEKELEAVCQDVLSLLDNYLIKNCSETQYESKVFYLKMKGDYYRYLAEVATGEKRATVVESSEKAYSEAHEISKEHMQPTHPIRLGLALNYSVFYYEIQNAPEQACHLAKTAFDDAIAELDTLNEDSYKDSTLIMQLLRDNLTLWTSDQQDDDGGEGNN
Procedure: The ability of compounds (a)-(k) to inhibit the interaction between 14-3-3γ and pHSP20 was determined by a fluorescence polarization (FP) assay. […] The initial screen for inhibitors examined approximately 50,000 compounds in the DiverSet library (ChemBridge, San Diego). Initial compound screening was carried out by first mixing peptide and individual compounds followed by addition of protein to a final volume of 15 ul. The final concentrations of each component were: 57.4 nM peptide, 10 uM compound, 5% DMSO, 1.5 uM 14-3-3 gamma, 0.01 M HEPES pH 7.4, 0.15 M NaCl, 3 mM EDTA, 0.005% Tween 20, 10 mM MnCl2, 9.33 mM Tris (7.5), and 0.0093% NaN3.
The ability of compounds (l) and (m) to inhibit the interaction between 14-3-3γ and pHSP20 was determined by a fluorescence polarization (FP) assay as described in Example 4, except that the compound was measured at multiple concentrations.

[2] = system: Primary human airway smooth muscle cells; test: Spontaneous bead motion (MSD) of RGD-coated microbeads on airway smooth muscle cells; type: cell-based; settings: for effect on bead motion: formulated with 4% cyclodextrin, 10-15 minutes incubation
Procedure: Primary human airway smooth muscle cells were isolated from healthy individuals and cultured to passage 3-6. The cells were grown to confluence, and then serum deprived for 24 hours. The serum-deprived cells were plated on plastic wells coated with collagen.
After the cells were plated, RGD-coated microbeads were added. […] Consequently, the movement of the cells can be determined by monitoring the motion of the microbeads. In this assay, the rate of spontaneous bead motions (i.e., cell motion) depends upon the rate of reorganization of the actin cytoskeleton.
The position of each bead was recorded using video microscopy. The two-dimensional trajectory of bead motion are expressed as a mean square displacement (MSD) as a function of time: […]
where ri(t) is the distance of the ith bead at time t relative to its position at time 0.
The spontaneous bead motion in each sample of cells was first measured for 5 minutes. […] Spontaneous bead motions were then measured for another 5 minutes.

[3] = system: Primary human airway smooth muscle cells; test: Magnetic twisting cytometry, cell stiffness (storage modulus G'); type: cell-based; settings: for change of cell stiffness (storage modulus): controls, measured over 10 minutes
Procedure: Primary human airway smooth muscle cells were isolated from healthy individuals and cultured to passage 3-6. The cells were grown to confluence, and then serum deprived for 24 hours. The serum-deprived cells were plated on plastic wells coated with collagen. After the cells were plated, RGD-coated microbeads were added. As described by Wang et al. Science 260:1124-1127, 1993, the microbeads become tightly anchored to the cell cytoskeleton. Consequently, the movement of the cells can be determined by monitoring the motion of the microbeads.
Once the cells were attached to the microbeads, the beads were magnetized using a magnetizing coil and twisted using a twisting coil, which generates an oscillating magnetic field at 0.7 Hz. The bead displacement is measured using video microscopy at 83 ms intervals. The amplitude of bead displacement is dependent on several factors, but generally the displacement is directly proportional to cell stiffness. The cell stiffness is expressed as a change of storage modulus (G′) over time (Maksym et al., J. Appl. Physiol. 89: 1619-1632, 2000).
The cell stiffness for control experiments and experiments using peptides was measured over 10 minutes. The peptides were added 1 minute after the start of the experiment. The cell stiffness for non-peptidyl compounds of the invention was measured for 1 minute, stopped, compound added and stiffness was measured for another 10 minutes.

[4] = system: Bovine coronary artery rings; test: Contraction/dilation of serotonin-treated bovine coronary artery rings; type: cell-based; settings: for effect on the rings: cyclodextrin formulation, serotonin treated, 30 minutes after treatment
Procedure: Bovine coronary artery rings were treated with compositions containing only cyclodextrin or formulations of cyclodextrin in combination with a pHSP20 peptide, compound (m) or compound (n). The contraction of the rings was measured over time after treatment with serotonin and one of the formulations above. Each of the formulations was tested at several concentrations, with the exception of the pHSP20 peptide.

[5] = biological target: T2, 14-3-3 gamma isoform (Homo sapiens, UniProt P61981); test: Biacore competition: 14-3-3 gamma flowed over immobilized pHSP20 peptide in presence of competing peptides; type: binding; settings: free peptide as competitor
T2 construct: GST-His (E23) or Biotin-His (E25)
T2 sequence (P61981 1-247): T1 sequence (P61981 1-247)
Procedure: To determine the relative binding affinity between various truncated versions of the pHSP20 (phosphorylated HSP20) peptide and the 14-3-3 gamma isoform, Applicants employed Biacore binding assays and the experiments were set up as follows. The pHSP20 peptide used in the original experiments (e.g., WLRRAp[…]) was immobilized to a Biacore chip and competition experiments were performed by flowing a 14-3-3 gamma isoform protein over the chip in the presence of different pHSP20 truncation variants. The pHSP20 truncation variants included: a) pHSP20 (positive control); b) HSP20 (unphosphorylated pHSP20, negative control); c) RRApSAP (minimal 14-3-3 consensus binding sequence); d) WLRRApSAP; e) RRApSAPLP; f) RRAp[…]; g) WLRRApSAPLP.
Competition experiments were done whereby the only variable between experiments is the identity of the competing peptide.

[6] = system: 14-3-3 proteins; test: Pull-down with bead-immobilized peptides from HEK293 whole cell lysate, SDS-PAGE and MS analysis; type: binding, human; settings: peptide immobilized on Affigel 10 beads
Procedure: To determine if the pHSP20 peptide binds to 14-3-3, pull-down experiments were conducted with pHSP20 and its analogues, aHSP20 and scrHSP20, linked to NHS activated Affigel 10 beads. As an additional control, activated beads were also reacted with ethanolamine. Each of the bead-bound peptide samples and the ethanolamine control were then separately incubated for 1.5 h at 4° C. with a whole cell lysate derived from HEK293 cells. After thoroughly washing the beads, each of the four sets of beads was eluted with a 100 μM solution of the free peptide corresponding to the one immobilized on the beads; the ethanolamine control beads were eluted with pHSP20. Approximately 15% of the eluate volume was run on an SDS-PAGE gel, while the remainder of the eluate was precipitated with ethanol and then analyzed by a 2D-LC shotgun MS method (Washburn et al., 2001, Nat. Biotechnol. 19:242).
The N-terminal amino group of the peptides was utilized for the immobilization to N-hydroxysuccinimide activated Affi-Gel 10 beads (Biorad, Hercules, Calif.). For the immobilization, 60 μg of each peptide, dissolved in dimethylformamide (DMF), was incubated for 4 h with 100 μl beads and 0.14 μmol triethylamine (Sigma, St. Louis, Mo.). The final volume during the immobilization was 400 μl. […] The release of the ivDde group was monitored by measuring the absorption at 290 nm. […]

[7] = system: 14-3-3 isoforms (YWHAG, YWHAH, YWHAE, YWAHB, YWHAZ); test: Biacore binding of tagged 14-3-3 isoforms to immobilized pHSP20 peptide; settings: E23- and E25-tagged 14-3-3 proteins
Procedure: To further determine binding specificity of the pHSP20 peptide for each 14-3-3 isoform, similar binding experiments were carried out with each 14-3-3 isoform. Various 14-3-3 isoforms were either tagged with GST-His (referred to as “E23”) or tagged with Biotin-His (referred to as “E25”). The E23-14-3-3 proteins (tagged with GST-His) bound much better than the E25-14-3-3 proteins (tagged with Biotin-His). Similar effects were detected by using a version of YWHAG (also referred to as 14-3-3γ) in which the GST tag was proteolytically removed. […] It is believed that the GST either has a chaperone or stabilizing effect on YWHAG or it promotes the formation of dimers of YWHAG which could have different binding properties to pHSP20. Further experiments are planned to elucidate this discrepancy.

CC(C)(C)c1nc(Nc2ccccc2)s[n+]1C=C(Cl)Cl [(a)]
inhibition of interaction between 14-3-3γ and pHSP20 [1]: able to largely inhibit interaction

COc1ccccc1Nc1nc(-c2ccccc2)[n+](-c2ccccc2)s1 [(j)]
inhibition of interaction between 14-3-3γ and pHSP20 [1]: able to largely inhibit interaction

O=C(N/N=C/c1cc(O)ccc1Br)c1ccncc1 [(o)]
effect on bead motion [2]: not conclusive

c1ccc(CNc2nc(-c3ccccc3)[n+](-c3ccccc3)s2)cc1 [compound (f)]
effect on bead motion [2]: clearly increases bead motion
change of cell stiffness compared to the cyclodextrin control ([3]; solubilized with cyclodextrin, 10 minutes after addition): particular striking
inhibition of interaction between 14-3-3γ and pHSP20 [1]: able to largely inhibit interaction

O=[N+]([O-])C1=Cc2cc(Br)cc(Br)c2OC1c1c(Cl)cccc1Cl (stereo not drawn) [compound (l)]
IC50 [1]: ~32 µM

O=C(N/N=C/c1ccc(O)c(O)c1O)c1ccncc1 [compound (m)]
effect on bead motion [2]: not conclusive
duration of vasodilatory effect compared with pHSP20 peptide [4]: longer than that of the pHSP20 peptide
vasodilatory effect at 40 minutes after treatment [4]: no significant decrease in the vasodilatory effect
effect on the rings [4]: vasodilatory effect
IC50 [1]: ~13.5 µM

COc1ccc(/C=N/NC(=O)c2cncc(Br)c2)c(OC)c1OC [compound (n)]
effect on bead motion [2]: not conclusive
duration of vasodilatory effect compared with pHSP20 peptide [4]: longer than that of the pHSP20 peptide
vasodilatory effect at 40 minutes after treatment [4]: no significant decrease in the vasodilatory effect
effect on the rings [4]: vasodilatory effect

NCCc1c[nH]cn1 [histamine]
change of cell stiffness (storage modulus) [3]: increased the cell stiffness

CC(C)NCC(O)c1ccc(O)c(O)c1 (stereo not drawn) [isoproterenol]
change of cell stiffness (storage modulus) [3]: decreased the stiffness

CC(C)C[C@H](NC(=O)CNC(=O)[C@@H]1CCCN1C(=O)[C@H](CC(C)C)NC(=O)[C@@H]1CCCN1C(=O)[C@H](C)NC(=O)[C@H](COP(=O)(O)O)NC(=O)[C@H](C)NC(=O)[C@H](CCCNC(=N)N)NC(=O)[C@H](CCCNC(=N)N)NC(=O)[C@H](CC(C)C)NC(=O)[C@@H](N)Cc1c[nH]c2ccccc12)C(=O)N[C@@H](CO)C(=O)N[C@@H](CCCCN)C(=O)O [pHSP20 peptide] (H-WLRRA[pS]APLPGLSK-OH; N-terminus and C-terminus assumed)
competition with immobilized pHSP20 peptide for binding to 14-3-3γ [5]: binding of 14-3-3 to the pHSP20 ligand is decreased
binding of 14-3-3 proteins in pull-down [6]: binds to 14-3-3 proteins
isoform specificity for the pHSP20 peptide [7]: YWHAG>YWHAH>YWHAE=YWAHB=YWHAZ and 14-3-3γ (YWHAG) and 14-3-3η (YWHAH) bind stronger than the other 14-3-3 isoforms

O=[As]O [sodium arsenite, reference compound]
effect on bead movement ([2]; 200 μM, negative control): decrease in bead movement

RRApSAP
competition with immobilized pHSP20 peptide for binding to 14-3-3γ [5]: competed better than the original pHSP20 sequence; also recorded: higher binding affinity to 14-3-3 gamma than the original pHSP20 peptide; also recorded: strong competition

WLRRApSAP
competition with immobilized pHSP20 peptide for binding to 14-3-3γ [5]: higher binding affinity to 14-3-3 gamma than the original pHSP20 peptide; also recorded: strong competition
